Measurements published in patent US20250213587A1, “ITK INHIBITORS FOR INCREASING TH1 CELL ACTIVITY” (Corvus Pharmaceuticals, Inc., priority 2022, published 2025).
Entries after “also recorded” stand apart in the source; their conditions may differ.

Experiments:
[1] = test system: colitis in C.B-17 SCID mice; experiment: Mouse T cell adoptive transfer colitis model; assay type: in vivo
Description: To enable long-term dosing in animal studies, a CPI-818-formulated mouse diet (300 mg/kg/day), and a control diet, with macronutrient levels matching the common Teklad 2018 diet were created (Research Diets, Inc.). Adequate drug exposure was confirmed by standard LC-MS method in plasma samples. Female BALB/c mice (11-12 weeks old) and female Fox Chase C.B-17 severe combined immunodeficient (SCID) mice (6-7 weeks old) were purchased from Charles River Laboratories. […] A third group on control diet was treated weekly via intraperitoneal (IP) route with 0.5 mg/mouse of anti-IL-12 p40 (clone C17.8) (BioXcell BE0051). On study day 0, SCID mice were injected IP with 4×10^5 CD4^+CD45RB^hi splenic T cells from BALB/c mice. On study day 48, animals were sacrificed. Colons were harvested for measurements. The distal section was preserved in 10% neutral buffered formalin, embedded into paraffin blocks, and sent to HistoTox Labs, Inc. for histologic analyses. Therapeutic efficacy was based on body weights, colon weights, and colon lengths. This study was carried out at Bolder BioPATH, Inc. in accordance with the test facility standard operating procedures, the World Health Organization Quality Practices in Basic Biomedical Research guidelines, and in compliance with all state and federal regulations.
Each slide containing 3 cross sections of the distal colon from each animal was stained with hematoxylin and eosin (H&E), or with an anti-CD3 antibody, and evaluated by a board-certified veterinary pathologist blinded to treatment information. Histologic lesions in H&E-stained slides were scored separately for severity 0-5, where 0=absent, 1=minimal, 2=mild, 3=moderate, 4=marked, 5=severe. Anti-CD3-stained slides were scanned using an Aperio AT2 whole slide scanner. Exclusions were applied to remove debris and tissue artifacts from the analyzed area. An algorithm was applied to the samples using Visiopharm (VIS) image analysis software. A count-based thresholding method was utilized to determine positivity of each pixel on the slide. The average of the three colon samples per slide was taken to determine both the number of immunolabeled CD3 cells and the total area of the colon. The output images underwent a quality control check after analysis was complete. CD3-immunolabeled cell density was calculated per 10,000 μm^2 using the following formula: […]
The body weights over time between two groups of animals were compared using the two-way analysis of variance (2-way ANOVA) method. Organ weights or lengths were compared using a Student's unpaired, two-tailed, t-test with Welch's correction. All statistical analyses were performed using Prism Version 8.3.0 (GraphPad Software).

[2] = target: Cys442Ala ITK (Homo sapiens, UniProt Q08881, C442A); experiment: Inhibition of Cys442Ala ITK mutant; assay type: biochemical; settings: similar conditions
Cys442Ala ITK, sequence (Q08881 whole entry C442A): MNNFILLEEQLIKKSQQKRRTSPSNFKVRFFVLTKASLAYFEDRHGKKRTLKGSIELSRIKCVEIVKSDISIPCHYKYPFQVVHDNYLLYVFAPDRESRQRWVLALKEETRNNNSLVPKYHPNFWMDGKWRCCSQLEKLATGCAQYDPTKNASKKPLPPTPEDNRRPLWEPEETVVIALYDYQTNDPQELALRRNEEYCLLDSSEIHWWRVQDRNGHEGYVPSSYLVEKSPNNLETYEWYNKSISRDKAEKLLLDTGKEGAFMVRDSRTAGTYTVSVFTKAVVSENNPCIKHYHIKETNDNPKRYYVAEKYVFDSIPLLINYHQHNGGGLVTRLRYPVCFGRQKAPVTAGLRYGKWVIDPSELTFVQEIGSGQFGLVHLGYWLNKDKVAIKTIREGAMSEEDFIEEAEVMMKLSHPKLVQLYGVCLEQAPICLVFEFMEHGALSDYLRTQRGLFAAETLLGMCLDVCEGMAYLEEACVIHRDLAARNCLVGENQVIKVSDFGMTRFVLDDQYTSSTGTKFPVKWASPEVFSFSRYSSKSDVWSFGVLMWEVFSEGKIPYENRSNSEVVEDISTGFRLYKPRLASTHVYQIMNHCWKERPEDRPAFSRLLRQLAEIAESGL
Description: Two biochemical assays of kinase activity were employed. […] In the Lanthascreen assay each kinase (1.0 nM) was incubated with compound for 120 minutes at 22° C. in a buffer composed of 50 mM HEPES (pH 7.5), 10 mM MgCl2, 1 mM EGTA, and 0.01% Brij 35. The kinase reaction was initiated by the addition of ATP (50 μM final) and fluorescein-poly-Glu-Tyr peptide (200 nM final). The reaction was quenched after 60 minutes at 22° C., and phospho-peptide product detected by the addition of EDTA (10 mM final) and terbium PY20 antibody (2 nM final). The phospho-peptide product was measured by time-resolved fluorescence resonance energy transfer (TR FRET) between the terbium of the antibody and fluorescein of the phospho-peptide using an EnVision plate reader (PerkinElmer, Waltham, MA) equipped to detect the TR-FRET signal (excitation 320 nm, dual emission at 495 nm and 520 nm). All reagents including recombinant human kinases, fluorescein-poly-Glu-Tyr peptide, terbium PY20 antibody, and kinase buffer A were purchased from Invitrogen.
Inhibition of kinase activity was measured by construction of a concentration response curve of the inhibitor. […] The response reading was normalized according to equation 1 and plotted against the Log base 10 transformed values of the molar concentration of inhibitor. The IC50 value was obtained by fitting equation 2 to the data. […]

[3] = target: T1, ITK (Mus musculus, UniProt Q03526); experiment: ITK occupancy in mouse splenocytes; assay type: in vivo; settings: for receptor occupancy at 50 mg/kg: po
T1 construct: from tissue; host or cells: splenocytes of dosed C57Bl/6 mice
T1 sequence (Q03526 1-625): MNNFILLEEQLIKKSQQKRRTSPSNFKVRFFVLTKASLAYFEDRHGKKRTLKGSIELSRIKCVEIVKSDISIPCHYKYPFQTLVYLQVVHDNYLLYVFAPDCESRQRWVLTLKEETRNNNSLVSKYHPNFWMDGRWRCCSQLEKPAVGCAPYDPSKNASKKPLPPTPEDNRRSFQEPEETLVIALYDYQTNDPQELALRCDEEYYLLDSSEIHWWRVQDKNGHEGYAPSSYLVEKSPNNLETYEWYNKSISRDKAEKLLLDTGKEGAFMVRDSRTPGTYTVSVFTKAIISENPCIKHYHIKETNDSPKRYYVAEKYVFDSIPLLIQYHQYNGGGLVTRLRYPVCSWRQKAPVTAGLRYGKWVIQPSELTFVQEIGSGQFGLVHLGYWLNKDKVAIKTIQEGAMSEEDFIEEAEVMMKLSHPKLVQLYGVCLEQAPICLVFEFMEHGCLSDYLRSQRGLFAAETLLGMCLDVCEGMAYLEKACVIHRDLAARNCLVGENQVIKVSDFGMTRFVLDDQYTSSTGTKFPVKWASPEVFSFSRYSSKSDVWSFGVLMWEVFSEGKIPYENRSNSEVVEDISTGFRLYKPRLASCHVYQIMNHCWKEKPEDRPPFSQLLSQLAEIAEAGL
Description: The active site occupancy of ITK by a covalent inhibitor was measured using an irreversibly bound biotinylated probe in an immuno-electrochemiluminescence assay. The binding of an inhibitor and the probe to the ATP binding site is mutually exclusive. In lysates of immune cell lines or immune cells collected from treated animals, the biotinylated probe reacts with free (uninhibited) ITK and is subsequently captured on a streptavidin-coated surface and quantified. The free ITK in each sample is normalized by dividing it by either the lysate protein concentration (BCA protein assay, Pierce) or cell count of the sample. Normalized free ITK values are generated for samples collected prior to and after treatment from which occupancy was calculated using equation 7. Single cell suspensions of Jurkat cells, mouse splenocytes, dog PBMC or purified normal human T cells were prepared. Cell lysis was performed using a buffer containing CelLytic M (Sigma Aldrich) supplemented with protease and phosphatase inhibitors (Pierce). The cell pellet resuspended in lysis buffer was incubated at room temperature for 30 minutes when the lysate was clarified by centrifugation at 20,000×g for 5 minutes at 4° C. A solution of the biotinylated probe CP-613 (27.5 nM final, FIG. 14B) was added to the lysate and incubated with mixing for 60 minutes at room temperature. The lysate mixture (35 μL) was transferred in duplicate to separate wells of a blocked streptavidin-coated plate (Mesoscale Diagnostics) then incubated at room temperature with mixing for 60 minutes. The lysate mixture was removed from the plate and the wells were washed with three rounds of PBS/Tween 20 buffer (Thermo Scientific). Rabbit polyclonal anti-ITK antibody solution (Abcam) was dispensed into the wells of the plate and incubated at room temperature with mixing for 60 minutes. The antibody solution was removed from the wells and washed with three rounds of PBS/Tween 20 buffer. Anti-rabbit antibody (goat) sulfo-TAG (Mesoscale Diagnostics) was dispensed into the wells of the plate then incubated at room temperature with mixing for 60 minutes. The antibody solution was removed from the plate and the wells washed with three rounds of PBS/Tween 20 buffer. Read buffer (Mesoscale Diagnostics) diluted two-fold with water was dispensed into the wells of the plate which was read immediately using an MESO Quickplex SQ 120 instrument.
Male C57Bl/6 mice (6-8 weeks of age) were purchased from Charles River Laboratories. […] At scheduled time points mice were euthanized by asphyxiation by CO2 and their spleens were collected immediately and placed into ice cold PBS (N=4/timepoint). All animal procedures were conducted in accordance with a protocol approved by the IACUC committee at Corvus Pharmaceuticals.

[4] = target: T2, ITK (Canis lupus familiaris, UniProt A0A8I3MMK2); experiment: ITK occupancy in dog PBMC; assay type: in vivo; settings: po, single 5 mg/kg PO
T2 construct: from tissue; host or cells: PBMC of dosed dogs
T2 sequence (A0A8I3MMK2 1-620): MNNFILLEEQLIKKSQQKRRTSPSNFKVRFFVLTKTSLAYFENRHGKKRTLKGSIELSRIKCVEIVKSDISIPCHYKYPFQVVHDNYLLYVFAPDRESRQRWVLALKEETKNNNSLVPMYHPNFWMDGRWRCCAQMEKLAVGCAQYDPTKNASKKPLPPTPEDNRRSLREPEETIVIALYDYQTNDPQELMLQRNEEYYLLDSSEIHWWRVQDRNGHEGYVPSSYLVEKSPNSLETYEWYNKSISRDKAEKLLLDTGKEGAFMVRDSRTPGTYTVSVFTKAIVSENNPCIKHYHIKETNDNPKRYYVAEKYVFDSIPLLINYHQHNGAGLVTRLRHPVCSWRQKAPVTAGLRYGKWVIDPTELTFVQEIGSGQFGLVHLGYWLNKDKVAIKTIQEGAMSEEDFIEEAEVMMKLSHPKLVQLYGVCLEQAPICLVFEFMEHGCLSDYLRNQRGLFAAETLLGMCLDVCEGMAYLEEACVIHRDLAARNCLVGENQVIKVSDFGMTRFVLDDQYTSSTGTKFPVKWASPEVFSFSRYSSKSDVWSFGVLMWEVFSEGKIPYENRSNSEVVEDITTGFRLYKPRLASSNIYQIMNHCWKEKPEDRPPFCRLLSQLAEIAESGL
Description: The active site occupancy of ITK by a covalent inhibitor was measured using an irreversibly bound biotinylated probe in an immuno-electrochemiluminescence assay. The binding of an inhibitor and the probe to the ATP binding site is mutually exclusive. In lysates of immune cell lines or immune cells collected from treated animals, the biotinylated probe reacts with free (uninhibited) ITK and is subsequently captured on a streptavidin-coated surface and quantified. The free ITK in each sample is normalized by dividing it by either the lysate protein concentration (BCA protein assay, Pierce) or cell count of the sample. Normalized free ITK values are generated for samples collected prior to and after treatment from which occupancy was calculated using equation 7. Single cell suspensions of Jurkat cells, mouse splenocytes, dog PBMC or purified normal human T cells were prepared. Cell lysis was performed using a buffer containing CelLytic M (Sigma Aldrich) supplemented with protease and phosphatase inhibitors (Pierce). The cell pellet resuspended in lysis buffer was incubated at room temperature for 30 minutes when the lysate was clarified by centrifugation at 20,000×g for 5 minutes at 4° C. […] Read buffer (Mesoscale Diagnostics) diluted two-fold with water was dispensed into the wells of the plate which was read immediately using an MESO Quickplex SQ 120 instrument.

- change of IC50 at Cys442Ala ITK compared to wild-type [2]: > 100 fold
- receptor occupancy at 300 mg/kg/day ([3]; mouse, chow formulation, 300 mg/kg/day): 86 to 95%
- receptor occupancy at 50 mg/kg ([3]; mouse, 50 mg/kg BID PO, 2 h after dosing): 95%
- receptor occupancy at 50 mg/kg ([3]; mouse, 50 mg/kg BID PO, 12 h, prior to second dose): 36%
- receptor occupancy at 50 mg/kg ([3]; mouse, single 50 mg/kg PO, 24 h): 17%
- receptor occupancy at 50 mg/kg ([3]; mouse, single 50 mg/kg PO, first 8 h): 87 to 98%
- ITK occupancy in splenocytes ([3]; single 50 mg/kg PO, first 8 h, 50 mg/kg): > 87%
- ITK occupancy ([3]; single dose, 30 to 120 min): essentially complete ITK occupancy
- receptor occupancy at 5 mg/kg ([4]; 2 h): 91%
- receptor occupancy at 5 mg/kg ([4]; 24 h): 31%
SMILES: C=CC(=O)N1CCCN(C(=O)c2cc(Sc3cnc(NC(=O)C4CC4)s3)c(C)cc2OC)C[C@H]1C [CPI-818]
- protection from colitis (diarrhea, weight loss) ([1]; diet 300 mg/kg/day from one week before transfer): protected from colitis
- infiltration of CD3+ T cells in colon ([1]; histology): blocked the infiltration of CD3^+ T cells; also recorded: prevented infiltration of CD3+ T cells
- severity of histologic lesions ([1]; inflammation, mucosal necrosis, epithelial hyperplasia, submucosa edema): significantly reduced the severity
- colon weights and lengths ([1]; necropsy 7 weeks post-transfer): within the ranges of naïve animals
